For the assay, the system named is CEM cells HIV-1 protection, formazan growth assay. Description: NCI AIDS Antiviral Assay. The note with it: for IC50: measured here: growth of uninfected CEM cells. The method in brief:
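Protection of CEM cells against HIV-1 was scored from cell growth (soluble formazan) across five concentrations, with parallel uninfected cells. Lack of protection may reflect toxicity.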

Consider 70 compounds from PubChem BioAssay AID179 (DTP/NCI, 2004).

Calls of active or inactive are those of the source.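 Rule for the calls: active = compounds giving half or more protection of infected cells from virus-caused growth loss, again on retest; inactive = the rest.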 A value given as a limit tells only on which side of the number the result lay.

Take `O=C1c2c(F)c(F)c(F)c(F)c2SC2=NCCN12`: the EC50 was > 20 µM and the IC50 stood at 2 µM. As for `CO[C@H](c1ccccc1)[C@H](C)N(C)c1ccc2ccccc2c1C1=NC(C)(C)CO1`, the EC50 was > 64.6 µM and the IC50 is > 64.6 µM. Consider `Cc1cnc(C)c(-c2cc3ccccc3[nH]2)n1`, for which the EC50 is > 32.4 µM and the IC50 was > 32.4 µM. Consider `S=C(NCCNC(=S)[S][Sn]([c]1ccccc1)([c]1ccccc1)[c]1ccccc1)[S][Sn]([c]1ccccc1)([c]1ccccc1)[c]1ccccc1`, for which the EC50 is > 0.1 µM and the IC50 is 0.0646 µM. In the case of `O=C(O)c1c(O)ccc(O)c1C(=O)Nc1ccc(/C=C/c2ccc(NC(=O)c3c(O)ccc(O)c3C(=O)O)cc2S(=O)(=O)O)c(S(=O)(=O)O)c1`, the concentration giving a half-maximal response (EC50) is 17.8 µM and the IC50 was > 200 µM. Take `Nc1ccc(Cn2ccc3c4c(N)nc(N)nc4ccc32)cc1`: the result was inactive. Consider `Cc1cccc(CP(Cc2cccc(C)c2)CC2(Cp3c4ccccc4c4ccccc43)COC2)c1`, for which the EC50 is > 2 µM and the IC50 came out at 0.257 µM.

In the case of `O=C1CCCCN1`, the outcome was inactive.

Consider `O=C(CCCC[n+]1ccccc1)Sc1ccccc1C(=O)Nc1ccc(S(=O)(=O)Nc2ncccn2)cc1`, for which the EC50 was 17 µM and the IC50 was 56.2 µM. With `Cc1cccc(C)c1NC(=O)C(=O)Nn1c(NN)nc2ccccc2c1=O`, the EC50 was > 676 µM and the IC50 came to 525 µM. On to `N#CC(N)(C(=O)CCC(=O)Nc1cccc(Cl)c1)c1ccc(Cl)cc1` (configuration not stated), for which the EC50 was > 661 µM and the IC50 is > 661 µM. `CN(C)C=NCCN1CCOCC1`: the EC50 is > 200 µM and the IC50 was > 200 µM. As for `CSc1cnc2ccccc2c1Sc1c[nH]c2ccccc2c1=O`, the EC50 is > 14.8 µM and the IC50 came out at 13.2 µM. Consider `N#C/C(=C1\SC(N=Nc2ccc(Cl)cc2)C(=O)N1c1ccccc1)c1nc2ccccc2[nH]1` (configuration not stated), for which the EC50 was > 3.8 µM and the IC50 was > 3.8 µM. `O=C1C=CC(=O)c2nc(-c3ccccc3)c(-c3ccccc3)nc21`: the EC50 is 0.363 µM and the IC50 was 12 µM. For `CCOC(=O)c1cn(-c2ccccc2)c(=S)n2c1nc1ccccc12`, the EC50 is > 200 µM and the IC50 was found to be 7.59 µM. In the case of `CC(C)c1cccc(C(C)C)c1O`, the EC50 was > 200 µM and the concentration for half-maximal inhibition (IC50) was > 200 µM. For the compound `CSc1n[nH]c(N)c1C(=O)Nc1ccc(Cl)cc1`, the EC50 is 0.457 µM and the IC50 was 1.86 µM. With `COc1ccc(S(=O)(=O)N/N=C\c2cc([N+](=O)[O-])cc(I)c2O)c(OC)c1OC`, the EC50 is > 468 µM and the IC50 worked out at 67.6 µM. As for `C/C(=N\NC(=S)NCCCCNC(=S)N/N=C(\C)c1ccccn1)c1ccccc1`, the EC50 is > 200 µM and the IC50 was determined as 1.62 µM.

As to `COc1ccc2c(=O)c(-c3ccc(OC)c(OC)c3OCc3ccccc3)coc2c1`, the EC50 was > 200 µM and the IC50 stood at 69.2 µM. Consider `COC1CC(OC2C(C)OC(OC3C(C)OC(OC4C(O)CC(O[C@H]5CC[C@@]6(C)C(=CC[C@]7(O)[C@@H]6C[C@@H](OC(C)=O)[C@@]6(C)[C@]7(O)CC[C@@]6(O)C(C)=O)C5)OC4C)CC3OC)CC2OC)OC(C)C1O` (some centres not stated), for which the EC50 is > 200 µM and the IC50 was > 200 µM. Take `CC(CO)(CO)N1C(=O)c2cccc3cc([N+](=O)[O-])cc(c23)C1=O`: the EC50 was > 200 µM and the IC50 was > 200 µM. For `CCOC(=O)C[C@@]12CCCN[C@]1(C)CCc1ccccc12`, the result was inactive. On to `O=c1[nH]c2ccccc2nc1CBr`, for which the EC50 was > 200 µM and the IC50 was 2.82 µM. As for `CCOC(=O)C1(C/C=C/CBr)CCc2ccccc2C1=O` (configuration not stated), the EC50 is > 200 µM and the IC50 stood at 2.14 µM. `O=C(O)c1cc(N=Nc2ccc(CCc3ccc(N=Nc4cc(C(=O)O)c(O)c5ccccc45)cc3S(=O)(=O)O)c(S(=O)(=O)O)c2)c2ccccc2c1O`: the EC50 is > 12.6 µM and the IC50 is > 12.6 µM. `COCC(N=CN1CCCc2ccccc2[C@@H]1CCCCl)C(C)(C)C` (some centres not stated): the EC50 is > 200 µM and the IC50 came out at 22.4 µM. As for `COc1ccc2c(c1)CC1NC2Cc2ccccc21` (configuration not stated), the outcome was inactive. Regarding `Nc1c(N=Nc2ccc(S(=O)(=O)c3ccc(N=Nc4cc(S(=O)(=O)O)c5cccc(S(=O)(=O)O)c5c4N)cc3)cc2)cc(S(=O)(=O)O)c2cccc(S(=O)(=O)O)c12`, the EC50 was 25.1 µM and the IC50 was found to be 380 µM. In the case of `CC(=O)c1ccc2c(c1)CC1(C2)Cc2cc3c(c(C(=O)O)c2C1)CCC3` (configuration not stated), the EC50 was > 200 µM and the IC50 stood at 61.7 µM. Take `COc1ccc2c(c1)CCC1C3(CCCC21C)OCCO3` (configuration not stated): the EC50 was > 100 µM and the IC50 stood at 20.4 µM.

With `C/C(=C(/C)c1cc[n+](C)cc1)c1cc[n+](C)cc1`, the EC50 is > 11.2 µM and the half-inhibitory concentration (IC50) was > 11.2 µM. `COC12c3ccccc3-c3ccccc3C1[C@H]1C(=O)OC(=O)[C@H]12` (some centres not stated): the EC50 was > 162 µM and the IC50 is > 162 µM. In the case of `O=[N+]([O-])c1ccc(N=Cc2ccc(Cl)cc2)cc1`, the EC50 was > 200 µM and the IC50 worked out at 9.77 µM.

Turning to `COC(=O)CNC(=O)/C=C/[C@H](O[Si](C)(C)C(C)(C)C)[C@H](/C=C/C(=O)NCC(=O)OC)O[Si](C)(C)C(C)(C)C`, the EC50 was > 25.1 µM and the IC50 was > 25.1 µM. As for `CCOC(=O)N1N=C(/C(C)=N/OC)C(C)S1=O` (configuration not stated), the EC50 is > 200 µM and the IC50 is 148 µM. With `COC(=O)C1(NC(=O)C(CC(=O)OCc2ccccc2)NC(=O)OCc2ccccc2)CCCCCCC1` (configuration not stated), the EC50 is > 200 µM and the IC50 was determined as 11.7 µM. The matching figures for `CCCc1cc(=O)oc2c3c(c4c(c12)OC(C)(C)CC4)O[C@H](C)[C@@H](C)[C@H]3O`: > 200 µM and 10.7 µM. Take `Nc1nc(SCc2ccccc2)c2ncn(CCO)c2n1`: the EC50 is > 200 µM and the IC50 came out at 191 µM. Turning to `CCCCc1ccc(N2C(=O)c3cc(C)cnc3S2(=O)=O)cc1`, the EC50 is > 200 µM and the IC50 was > 200 µM. Consider `COC(=O)c1cn2ccc3ccccc3c2c1C(=O)OC`, for which the EC50 was > 200 µM and the IC50 was > 100 µM. In the case of `O=Cc1nc2ccccc2s1`, the result was inactive.

On to `CCSc1ccc(N=[N+]([O-])c2ccc(SCC)c(Cl)c2)cc1Cl`, for which the EC50 was > 50.1 µM and the IC50 is > 50.1 µM.

Take `O=C(O)/C(=C/c1c(O)ccc2ccccc12)c1csc(-c2nc(/C(=C\c3c(O)ccc4ccccc34)C(=O)O)cs2)n1`: the EC50 was > 43.7 µM and the 50% inhibitory concentration (IC50) turned out to be 23.4 µM. For `Cc1ncc2c(n1)-c1ccccc1OC2O` (configuration not stated), the EC50 is > 200 µM and the IC50 was > 200 µM. With `O=C1Cn2c(cc(=O)c3ccccc32)O1`, the EC50 was > 67.6 µM and the IC50 is > 67.6 µM.

For the compound `CC1(C)OC2OC(C3COS(=O)O3)C(Cl)C2O1` (configuration not stated), the EC50 was > 871 µM and the IC50 was 490 µM. As for `O=P1(c2ccccc2)c2ccccc2CCc2ccccc21`, the EC50 is > 200 µM and the IC50 was 95.5 µM.

Regarding `CC(C)(C)OC(=O)NC1CCCC1C(O)(C1=CCCC1)C1=CCCC1` (configuration not stated), the EC50 is > 200 µM and the IC50 is 120 µM. Turning to `CCO/C=C/C=C(C(=O)OCC)C(=O)OCC`, the EC50 is > 148 µM and the IC50 is > 148 µM. Consider `O=C1C=C/C(=C/C(O)COC(=O)c2ccccc2)O1` (configuration not stated), for which the EC50 is > 138 µM and the IC50 was 77.6 µM. Turning to `O=[N+]([O-])c1ccc(SSc2ccc([N+](=O)[O-])cc2Cl)c(Cl)c1`, the EC50 is > 200 µM and the IC50 came to 10 µM.

Take `COc1ccc2[nH]c3c4c(c5cc(C(C)(C)C)ccc5c3c2c1)C(=O)N(c1ccccc1)C4=O`: the result was inactive.

As to `CCOC(=O)c1cc2nc(NC(=O)c3ccccc3)sc2n1C`, the EC50 is > 200 µM and the half-inhibitory concentration (IC50) was > 200 µM. Regarding `COc1ccc(NC(=O)/C(=C/c2ccc(N(CCC#N)CCC#N)cc2)NC(=O)c2cc([N+](=O)[O-])ccc2Cl)cc1`, the EC50 was > 23.4 µM and the IC50 is > 23.4 µM.

On to `CC(=O)OC12CCCCC(CCCC1)O2`, for which the EC50 was > 200 µM and the IC50 was > 200 µM. As to `CSc1scc2c1/C(=N/NC(N)=O)CCC2`, the EC50 was > 200 µM and the IC50 is 91.2 µM.

In the case of `O=C(NO)c1cccc(OCc2ccc(Br)cc2)c1`, the EC50 was > 200 µM and the IC50 was determined as 9.12 µM.

In the case of `CCN(CC)CCOc1ccc(C(C#N)=C(c2ccccc2)c2ccccc2)cc1`, the EC50 is > 200 µM and the IC50 came out at 2.57 µM. As for `Nc1cccc(N=Nc2c(S(=O)(=O)O)cc3cc(Nc4ccc5c(O)c(N=Nc6cccc(N)c6)c(S(=O)(=O)O)cc5c4)ccc3c2O)c1`, the outcome was inactive. `CCCCCCCCCC1CC(=O)c2c(O)cccc2O1` (configuration not stated): the EC50 is > 18.2 µM and the IC50 was > 18.2 µM.

On to `O=Cc1ccccc1COC(=O)c1cc(C(=O)OCc2ccccc2C=O)c(C(=O)OCc2ccccc2C=O)cc1C(=O)OCc1ccccc1C=O`, for which the EC50 is > 0.759 µM and the IC50 was > 0.759 µM. In the case of `Cc1cccc(C)c1NC(=O)CCc1nnc2s/c(=C\c3ccc(N(C)C)cc3)c(=O)n12`, the EC50 is > 1.7 µM and the IC50 was > 1.7 µM.

In the case of `O=C(NC1C=Nc2ccc(Cl)cc2NC1=O)c1ccccc1Cl` (configuration not stated), the EC50 was > 200 µM and the IC50 is 123 µM. With `O=C1C(=O)c2ccccc2C(O)=C1C(C1=C(O)c2ccccc2C(=O)C1=O)c1ccc(Cl)c(Cl)c1`, the EC50 was > 200 µM and the IC50 amounted to 18.6 µM. With `O=C1C(N=Nc2ccccc2)Sc2nc3ccccc3n21` (configuration not stated), the EC50 was > 200 µM and the IC50 came to 85.1 µM. In the case of `CC1=CC[C@@]2(C)CC[C@](O)(C(C)C)C2C(OC(=O)c2ccccc2)C1` (some centres not stated), the EC50 is > 200 µM and the IC50 was determined as 13.2 µM. For the compound `COc1cc2nncc(Cl)c2cc1OC`, the EC50 was > 95.5 µM and the IC50 was 79.4 µM.

Regarding `O=c1c2ccccc2c(=O)c2cc3c(=O)n(-c4ccccc4)c(=O)c3cc12`, the outcome was inactive.
